Results reported in PubChem BioAssay AID330 (DTP/NCI, 2004).
“And” between values parts separate entries of the source, which are not always exact repeats. Equal values may be shown once. Toxic doses and inconclusive results are not listed.

Test system: P388 leukemia ip, CD2F1 mice, survival T/C
Assay: NCI In Vivo Anticancer Drug Screen. Data for tumor model P388 Leukemia (intraperitoneal) in CD2F1 (CDF1) mice
Conditions: endpoint: median survival time, higher = longer survival
Summary of the method: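 Mice carrying the transplanted tumor received test compound or vehicle. Survival was recorded in each group, and the value is the treated-group measurement divided by that of the vehicle-treated control group.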

[1] = dose: 60.0 mg/kg/injection, schedule: Q01DX005 (ip), vehicle: saline with Tween-80
[2] = dose: 120.0 mg/kg/injection, schedule: Q01DX005 (ip), vehicle: saline with Tween-80
[3] = dose: 240.0 mg/kg/injection, schedule: Q01DX005 (ip), vehicle: saline with Tween-80
[4] = dose: 100.0 mg/kg/injection, schedule: Q04DX003 (ip), vehicle: saline with Tween-80
[5] = dose: 200.0 mg/kg/injection, schedule: Q04DX003 (ip), vehicle: saline with Tween-80
[6] = dose: 400.0 mg/kg/injection, schedule: Q04DX003 (ip), vehicle: saline with Tween-80
[7] = dose: 100.0 mg/kg/injection, schedule: Q01DX001 (ip), vehicle: saline with Tween-80
[8] = dose: 200.0 mg/kg/injection, schedule: Q01DX001 (ip), vehicle: saline with Tween-80
[9] = dose: 100.0 mg/kg/injection, schedule: Q04DX002 (ip), vehicle: saline with Tween-80
[10] = dose: 50.0 mg/kg/injection, schedule: Q01DX005 (ip), vehicle: saline with Tween-80
[11] = dose: 100.0 mg/kg/injection, schedule: Q01DX005 (ip), vehicle: saline with Tween-80
[12] = dose: 200.0 mg/kg/injection, schedule: Q01DX005 (ip), vehicle: saline with Tween-80
[13] = dose: 50.0 mg/kg/injection, schedule: Q01DX005 (ip), vehicle: Klucel (hydroxypropylcellulose) (HPC)
[14] = dose: 100.0 mg/kg/injection, schedule: Q01DX005 (ip), vehicle: Klucel (hydroxypropylcellulose) (HPC)
[15] = dose: 200.0 mg/kg/injection, schedule: Q01DX005 (ip), vehicle: Klucel (hydroxypropylcellulose) (HPC)
[16] = dose: 25.0 mg/kg/injection, schedule: Q01DX005 (ip), vehicle: Klucel (hydroxypropylcellulose) (HPC)
[17] = dose: 12.5 mg/kg/injection, schedule: Q04DX003 (ip), vehicle: saline
[18] = dose: 25.0 mg/kg/injection, schedule: Q04DX003 (ip), vehicle: saline
[19] = dose: 50.0 mg/kg/injection, schedule: Q04DX003 (ip), vehicle: saline
[20] = dose: 50.0 mg/kg/injection, schedule: Q01DX009 (ip), vehicle: Klucel (hydroxypropylcellulose) (HPC)
[21] = dose: 100.0 mg/kg/injection, schedule: Q01DX009 (ip), vehicle: Klucel (hydroxypropylcellulose) (HPC)

In the case of `O=C(NCc1ccncc1)c1ccccc1`, the T/C (dose: 100.0 mg/kg/injection, schedule: Q04DX003 (ip), vehicle: saline) is reported as 104 % of control, the T/C (dose: 200.0 mg/kg/injection, schedule: Q04DX003 (ip), vehicle: saline) is reported as 100 % of control and the T/C (dose: 400.0 mg/kg/injection, schedule: Q04DX003 (ip), vehicle: saline) is reported as 106 % of control.
In the case of `CC1(C)CC(=O)C2C(C1)OC1CC(C)(C)CC(=O)C1C2c1ccc2c(c1)OCO2` (stereo not drawn), the T/C [1] is reported as 104 % of control, the T/C [2] is reported as 100 % of control and the T/C [3] is reported as 97 % of control.
`COc1cccc(N2C(=O)CSC2=S)c1` was tested, and the T/C [4] was 95 % of control, the T/C [5] was 100 % of control and the T/C [6] was 90 % of control.
With `C=C(C)C1(O)c2c(Cl)cccc2C(c2ccccc2)c2cccc(Cl)c21` (stereo not drawn) the T/C [7] was 110 % of control, the T/C [8] was 107 % of control and the T/C (dose: 400.0 mg/kg/injection, schedule: Q01DX001 (ip), vehicle: saline with Tween-80) was 100 % of control.
For `COC1C(O)C(C)OC(OC2C(Oc3cccc4c(O)c5c(=O)oc6ccc(C)c7c(=O)oc(c34)c5c67)OC(C)C(O)C2O)C1O` (stereo not drawn), the T/C (dose: 0.5 mg/kg/injection, schedule: Q01DX009 (ip), vehicle: saline with Tween-80) was 108 % of control, the T/C (dose: 4.0 mg/kg/injection, schedule: Q01DX009 (ip), vehicle: saline with Tween-80) was 157 % of control and the T/C (dose: 6.25 mg/kg/injection, schedule: Q01DX009 (ip), vehicle: saline with Tween-80) was 152 % of control. For the same compound, the T/C (dose: 12.5 mg/kg/injection, schedule: Q01DX001 (sc), vehicle: Klucel (hydroxypropylcellulose) (HPC)) was 100 % of control, the T/C (dose: 12.5 mg/kg/injection, schedule: Q01DX001 (sc), vehicle: other) was 97 % of control and the T/C (dose: 12.5 mg/kg/injection, schedule: Q01DX005 (sc), vehicle: Klucel (hydroxypropylcellulose) (HPC)) was 98 % of control. For the same compound, the T/C (dose: 12.5 mg/kg/injection, schedule: Q01DX005 (sc), vehicle: other) was 101 % of control, the T/C (dose: 12.5 mg/kg/injection, schedule: Q01DX009 (ip), vehicle: saline with Tween-80) was 164 % of control and the T/C (dose: 25.0 mg/kg/injection, schedule: Q01DX001 (sc), vehicle: Klucel (hydroxypropylcellulose) (HPC)) was 102 % of control. For the same compound, the T/C (dose: 25.0 mg/kg/injection, schedule: Q01DX001 (sc), vehicle: other) was 100 % of control, the T/C (dose: 25.0 mg/kg/injection, schedule: Q01DX005 (sc), vehicle: Klucel (hydroxypropylcellulose) (HPC)) was 97 % of control and the T/C (dose: 25.0 mg/kg/injection, schedule: Q01DX005 (sc), vehicle: other) was 92 % of control. For the same compound, the T/C (dose: 25.0 mg/kg/injection, schedule: Q01DX009 (ip), vehicle: saline with Tween-80) was 174 % of control, the T/C (dose: 50.0 mg/kg/injection, schedule: Q01DX001 (sc), vehicle: Klucel (hydroxypropylcellulose) (HPC)) was 98 % of control and the T/C (dose: 50.0 mg/kg/injection, schedule: Q01DX001 (sc), vehicle: other) was 109 % of control. For the same compound, the T/C (dose: 50.0 mg/kg/injection, schedule: Q01DX005 (sc), vehicle: Klucel (hydroxypropylcellulose) (HPC)) was 100 % of control, the T/C (dose: 50.0 mg/kg/injection, schedule: Q01DX005 (sc), vehicle: other) was 98 % of control and the T/C (dose: 50.0 mg/kg/injection, schedule: Q01DX009 (ip), vehicle: saline with Tween-80) was 183 % of control. The T/C (dose: 100.0 mg/kg/injection, schedule: Q01DX009 (ip), vehicle: saline with Tween-80) was 171 % of control.
With `CCOC(=O)c1c2c(c[nH]c1=O)CCCC2` the T/C [7] was 106 % of control and the T/C [8] was 97 % of control.
`COc1cc([N+](=O)[O-])cc2c1OC1(SC(C)(C)C(C)CN1C)C(C)=C2` (stereo not drawn) was tested, and the T/C [4] was 105 % of control, the T/C [5] was 100 % of control and the T/C [6] was 95 % of control.
With `Cc1cccc(C)c1NC(=O)C1C(=O)C(=O)N(c2c(C)cccc2C)C1=O` (stereo not drawn) the T/C (dose: 25.0 mg/kg/injection, schedule: Q04DX002 (ip), vehicle: saline with Tween-80) was 100 % of control, the T/C (dose: 50.0 mg/kg/injection, schedule: Q04DX002 (ip), vehicle: saline with Tween-80) was 101 % of control and the T/C [9] was 98 % of control and 100 % of control.
With `C1CCC2C(C1)CCC1CCCCC12` (stereo not drawn) the T/C (dose: 25.0 mg/kg/injection, schedule: Q01DX001 (ip), vehicle: saline with Tween-80) was 96 % of control, the T/C (dose: 50.0 mg/kg/injection, schedule: Q01DX001 (ip), vehicle: saline with Tween-80) was 113 % of control and the T/C [7] was 100 % of control and 114 % of control. For the same compound, the T/C [8] was 110 % of control.
With `CC(C)(C)c1ccc(-c2cc3nc(-c4ccccc4)cc(=O)n3[nH]2)cc1` the T/C [1] was 100 % of control, the T/C [2] was 98 % of control and the T/C [3] was 98 % of control.
In the case of `Nc1cccc(-c2nn[nH]n2)c1`, the T/C [10] is reported as 98 % of control, the T/C [11] is reported as 102 % of control and the T/C [12] is reported as 88 % of control.
In the case of `CCCCCCCCCCS(=O)(=O)OCCCCOS(=O)(=O)CCCCCCCCCC`, the T/C [13] is reported as 103 % of control, the T/C [14] is reported as 103 % of control and the T/C [15] is reported as 93 % of control.
For `CC(O)[C@H]1CC[C@H]2[C@@H]3CC(=O)[C@H]4C[C@H](O)[C@H](O)C[C@]4(C)[C@H]3CC[C@]12C` (stereo partly drawn), the T/C [9] was 91 % of control, the T/C (dose: 200.0 mg/kg/injection, schedule: Q04DX002 (ip), vehicle: saline with Tween-80) was 90 % of control and the T/C (dose: 400.0 mg/kg/injection, schedule: Q04DX002 (ip), vehicle: saline with Tween-80) was 90 % of control.
In the case of `C=CSS/C(=C/N(C=O)Cc1cnc(C)nc1N)CCO`, the T/C [16] is reported as 108 % of control, the T/C [13] is reported as 108 % of control and the T/C [14] is reported as 102 % of control. For the same compound, the T/C [15] was 117 % of control.
`COc1ccc(O)cc1` was tested, and the T/C (dose: 12.5 mg/kg/injection, schedule: Q01DX005 (ip), vehicle: saline with Tween-80) was 104 % of control, the T/C (dose: 25.0 mg/kg/injection, schedule: Q01DX005 (ip), vehicle: saline with Tween-80) was 99 % of control and the T/C [10] was 99 % of control. The T/C [7] was 101 % of control, the T/C [11] was 99 % of control and the T/C [8] was 102 % of control.
`CC1(C)C(=O)C2=C(OC3([Se]2)C(=O)C(C)(C)C(=O)C(C)(C)C3=O)C(C)(C)C1=O` was tested, and the T/C (dose: 7.5 mg/kg/injection, schedule: Q01DX005 (ip), vehicle: Klucel (hydroxypropylcellulose) (HPC)) was 100 % of control, the T/C (dose: 15.0 mg/kg/injection, schedule: Q01DX005 (ip), vehicle: Klucel (hydroxypropylcellulose) (HPC)) was 107 % of control and the T/C (dose: 30.0 mg/kg/injection, schedule: Q01DX005 (ip), vehicle: Klucel (hydroxypropylcellulose) (HPC)) was 107 % of control. The T/C (dose: 60.0 mg/kg/injection, schedule: Q01DX005 (ip), vehicle: Klucel (hydroxypropylcellulose) (HPC)) was 99 % of control and the T/C (dose: 120.0 mg/kg/injection, schedule: Q01DX005 (ip), vehicle: Klucel (hydroxypropylcellulose) (HPC)) was 102 % of control.
For `COc1cc(Br)c(CC(NC(=O)c2ccccc2)c2ccc(OC)c(OC)c2OC)cc1OC` (stereo not drawn), the T/C [12] was 91 % of control.
With `O=C(O)C1C[n+]2ccccc2O1` (stereo not drawn) the T/C (dose: 12.5 mg/kg/injection, schedule: Q01DX009 (ip), vehicle: saline) was 100 % of control, the T/C [17] was 91 % of control and the T/C (dose: 25.0 mg/kg/injection, schedule: Q01DX009 (ip), vehicle: saline) was 100 % of control. The T/C [18] was 100 % of control, the T/C (dose: 50.0 mg/kg/injection, schedule: Q01DX009 (ip), vehicle: saline) was 109 % of control and the T/C [19] was 95 % of control.
In the case of `O=C(Nc1cccc(Cl)c1)N1CCNC1=S`, the T/C [20] is reported as 102 % of control and the T/C [21] is reported as 104 % of control.
In the case of `Cc1ccc(S(=O)(=O)N(CCc2ccc(Cl)cc2)S(=O)(=O)c2ccc(C)cc2)cc1`, the T/C [20] is reported as 109 % of control, the T/C [21] is reported as 94 % of control and the T/C (dose: 200.0 mg/kg/injection, schedule: Q01DX009 (ip), vehicle: Klucel (hydroxypropylcellulose) (HPC)) is reported as 93 % of control.
In the case of `O=C(CI)Nc1ccc2[nH]c(=O)cc(C(=O)O)c2c1`, the T/C [16] is reported as 100 % of control, the T/C [13] is reported as 101 % of control and the T/C [14] is reported as 108 % of control.
For `CC(C)(C)c1ccc(C(=O)O)c(O)c1.CC(C)(C)c1ccc(C(=O)O)c(O)c1.[Cu]`, the T/C [17] was 102 % of control, the T/C [18] was 94 % of control and the T/C [19] was 103 % of control.
